In ChEMBL document CHEMBL4373732, “Phosphatidylinositol 3 kinase (PI3K) inhibitors as new weapon to combat cancer” (Eur J Med Chem, 2019):

Assays:
[1] = target: T1, Phosphatidylinositol 4,5-bisphosphate 3-kinase catalytic subunit delta isoform (Homo sapiens, UniProt O00329); test: Inhibition of PI3Kdelta (unknown origin)
T1 sequence (O00329 whole entry): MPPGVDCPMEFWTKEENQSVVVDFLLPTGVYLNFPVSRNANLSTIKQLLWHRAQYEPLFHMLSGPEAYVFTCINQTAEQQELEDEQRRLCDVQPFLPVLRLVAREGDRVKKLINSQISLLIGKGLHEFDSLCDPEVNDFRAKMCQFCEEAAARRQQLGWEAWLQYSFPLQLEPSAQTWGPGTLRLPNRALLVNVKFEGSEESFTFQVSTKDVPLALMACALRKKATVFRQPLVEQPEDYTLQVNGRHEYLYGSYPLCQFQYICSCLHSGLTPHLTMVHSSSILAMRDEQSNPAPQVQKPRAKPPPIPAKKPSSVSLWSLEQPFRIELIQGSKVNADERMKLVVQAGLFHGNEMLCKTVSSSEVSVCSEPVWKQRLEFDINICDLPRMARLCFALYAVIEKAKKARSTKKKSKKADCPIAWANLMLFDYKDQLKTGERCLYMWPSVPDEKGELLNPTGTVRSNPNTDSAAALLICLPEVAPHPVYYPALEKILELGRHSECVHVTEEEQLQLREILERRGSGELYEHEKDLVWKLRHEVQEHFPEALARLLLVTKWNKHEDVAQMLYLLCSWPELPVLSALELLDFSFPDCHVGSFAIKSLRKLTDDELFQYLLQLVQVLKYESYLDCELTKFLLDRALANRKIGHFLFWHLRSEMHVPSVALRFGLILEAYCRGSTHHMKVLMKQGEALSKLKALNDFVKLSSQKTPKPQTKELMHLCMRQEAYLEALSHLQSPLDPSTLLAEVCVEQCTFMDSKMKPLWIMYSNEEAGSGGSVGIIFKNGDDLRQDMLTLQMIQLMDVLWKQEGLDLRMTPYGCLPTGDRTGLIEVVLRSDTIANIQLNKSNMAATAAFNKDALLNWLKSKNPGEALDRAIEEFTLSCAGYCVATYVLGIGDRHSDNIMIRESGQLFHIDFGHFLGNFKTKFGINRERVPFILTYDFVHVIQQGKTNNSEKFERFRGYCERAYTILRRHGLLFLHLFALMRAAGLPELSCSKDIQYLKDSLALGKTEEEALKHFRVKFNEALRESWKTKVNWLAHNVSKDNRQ

[2] = target: T2, Phosphatidylinositol 4,5-bisphosphate 3-kinase catalytic subunit beta isoform (Homo sapiens, UniProt P42338)
T2 sequence (P42338 whole entry, canonical isoform): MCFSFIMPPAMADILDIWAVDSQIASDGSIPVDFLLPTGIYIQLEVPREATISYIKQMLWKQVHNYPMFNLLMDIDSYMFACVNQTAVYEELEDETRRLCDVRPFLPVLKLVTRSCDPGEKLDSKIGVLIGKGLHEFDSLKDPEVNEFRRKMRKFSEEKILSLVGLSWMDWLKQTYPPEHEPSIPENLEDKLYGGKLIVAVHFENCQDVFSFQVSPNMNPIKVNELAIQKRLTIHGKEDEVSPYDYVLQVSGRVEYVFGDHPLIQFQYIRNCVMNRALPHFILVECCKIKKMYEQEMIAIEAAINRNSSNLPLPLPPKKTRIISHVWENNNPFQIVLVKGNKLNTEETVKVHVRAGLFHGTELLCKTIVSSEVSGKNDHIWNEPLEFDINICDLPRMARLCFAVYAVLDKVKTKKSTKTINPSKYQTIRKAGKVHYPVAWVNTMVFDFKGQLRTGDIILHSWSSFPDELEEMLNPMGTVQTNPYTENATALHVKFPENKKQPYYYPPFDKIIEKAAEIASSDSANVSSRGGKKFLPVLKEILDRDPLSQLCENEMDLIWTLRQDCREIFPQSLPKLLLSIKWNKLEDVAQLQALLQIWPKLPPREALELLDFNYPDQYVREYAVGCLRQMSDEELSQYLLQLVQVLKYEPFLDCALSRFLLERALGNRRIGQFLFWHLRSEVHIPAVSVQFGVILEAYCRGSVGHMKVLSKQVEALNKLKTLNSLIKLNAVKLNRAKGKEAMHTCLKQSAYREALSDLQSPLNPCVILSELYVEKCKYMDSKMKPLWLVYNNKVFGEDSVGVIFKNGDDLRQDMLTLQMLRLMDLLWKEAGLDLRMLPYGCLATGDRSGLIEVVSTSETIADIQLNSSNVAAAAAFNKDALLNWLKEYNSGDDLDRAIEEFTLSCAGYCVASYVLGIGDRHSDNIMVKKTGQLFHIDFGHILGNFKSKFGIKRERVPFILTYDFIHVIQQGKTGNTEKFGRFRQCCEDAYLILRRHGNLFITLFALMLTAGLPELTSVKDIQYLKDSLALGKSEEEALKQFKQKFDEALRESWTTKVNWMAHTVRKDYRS

[3] = target: T3, Phosphatidylinositol 4,5-bisphosphate 3-kinase catalytic subunit gamma isoform (Homo sapiens, UniProt P48736); test: Reversible competitive inhibition of PI3K p110gamma (unknown origin)
T3 sequence (P48736 whole entry, canonical isoform): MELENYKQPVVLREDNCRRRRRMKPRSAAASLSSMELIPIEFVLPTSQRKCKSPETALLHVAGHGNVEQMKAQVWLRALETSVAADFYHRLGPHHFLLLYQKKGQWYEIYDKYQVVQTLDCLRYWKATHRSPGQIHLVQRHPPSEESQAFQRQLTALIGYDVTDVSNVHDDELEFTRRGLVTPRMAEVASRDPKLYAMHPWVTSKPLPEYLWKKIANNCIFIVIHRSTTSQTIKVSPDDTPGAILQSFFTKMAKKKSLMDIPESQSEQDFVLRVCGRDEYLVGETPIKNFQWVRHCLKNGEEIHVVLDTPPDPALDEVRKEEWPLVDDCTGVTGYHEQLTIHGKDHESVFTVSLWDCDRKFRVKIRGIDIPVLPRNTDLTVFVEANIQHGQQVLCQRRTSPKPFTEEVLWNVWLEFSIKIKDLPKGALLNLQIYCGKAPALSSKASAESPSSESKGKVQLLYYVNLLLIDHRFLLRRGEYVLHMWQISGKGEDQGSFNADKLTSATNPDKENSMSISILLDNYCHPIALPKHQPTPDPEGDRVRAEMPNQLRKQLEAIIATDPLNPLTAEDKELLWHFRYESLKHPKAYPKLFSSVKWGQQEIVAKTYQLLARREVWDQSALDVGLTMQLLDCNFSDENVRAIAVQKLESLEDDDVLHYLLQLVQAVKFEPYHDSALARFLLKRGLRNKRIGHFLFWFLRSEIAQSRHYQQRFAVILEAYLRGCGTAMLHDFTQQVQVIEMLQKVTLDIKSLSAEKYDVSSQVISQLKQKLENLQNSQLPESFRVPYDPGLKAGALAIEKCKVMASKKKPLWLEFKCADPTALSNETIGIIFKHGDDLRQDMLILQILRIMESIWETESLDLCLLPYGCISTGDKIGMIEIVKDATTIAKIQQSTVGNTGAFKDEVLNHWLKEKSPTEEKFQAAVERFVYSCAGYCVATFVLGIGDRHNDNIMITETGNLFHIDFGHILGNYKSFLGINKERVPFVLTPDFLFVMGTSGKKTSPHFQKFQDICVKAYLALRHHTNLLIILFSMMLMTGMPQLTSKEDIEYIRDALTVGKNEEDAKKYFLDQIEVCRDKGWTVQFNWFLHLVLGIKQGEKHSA

[4] = target: T2, Phosphatidylinositol 4,5-bisphosphate 3-kinase catalytic subunit beta isoform; test: Inhibition of PI3K p110beta (unknown origin)
[5] = target: T3, Phosphatidylinositol 4,5-bisphosphate 3-kinase catalytic subunit gamma isoform; test: Inhibition of PI3K p110gamma (unknown origin)
[6] = target: Serine/threonine-protein kinase mTOR (Homo sapiens, UniProt P42345)
[7] = target: Phosphatidylinositol 4,5-bisphosphate 3-kinase catalytic subunit alpha isoform (Homo sapiens, UniProt P42336); test: Inhibition of PI3K p110alpha (unknown origin)
Sequence of Phosphatidylinositol 4,5-bisphosphate 3-kinase catalytic subunit alpha isoform (P42336 whole entry, canonical isoform): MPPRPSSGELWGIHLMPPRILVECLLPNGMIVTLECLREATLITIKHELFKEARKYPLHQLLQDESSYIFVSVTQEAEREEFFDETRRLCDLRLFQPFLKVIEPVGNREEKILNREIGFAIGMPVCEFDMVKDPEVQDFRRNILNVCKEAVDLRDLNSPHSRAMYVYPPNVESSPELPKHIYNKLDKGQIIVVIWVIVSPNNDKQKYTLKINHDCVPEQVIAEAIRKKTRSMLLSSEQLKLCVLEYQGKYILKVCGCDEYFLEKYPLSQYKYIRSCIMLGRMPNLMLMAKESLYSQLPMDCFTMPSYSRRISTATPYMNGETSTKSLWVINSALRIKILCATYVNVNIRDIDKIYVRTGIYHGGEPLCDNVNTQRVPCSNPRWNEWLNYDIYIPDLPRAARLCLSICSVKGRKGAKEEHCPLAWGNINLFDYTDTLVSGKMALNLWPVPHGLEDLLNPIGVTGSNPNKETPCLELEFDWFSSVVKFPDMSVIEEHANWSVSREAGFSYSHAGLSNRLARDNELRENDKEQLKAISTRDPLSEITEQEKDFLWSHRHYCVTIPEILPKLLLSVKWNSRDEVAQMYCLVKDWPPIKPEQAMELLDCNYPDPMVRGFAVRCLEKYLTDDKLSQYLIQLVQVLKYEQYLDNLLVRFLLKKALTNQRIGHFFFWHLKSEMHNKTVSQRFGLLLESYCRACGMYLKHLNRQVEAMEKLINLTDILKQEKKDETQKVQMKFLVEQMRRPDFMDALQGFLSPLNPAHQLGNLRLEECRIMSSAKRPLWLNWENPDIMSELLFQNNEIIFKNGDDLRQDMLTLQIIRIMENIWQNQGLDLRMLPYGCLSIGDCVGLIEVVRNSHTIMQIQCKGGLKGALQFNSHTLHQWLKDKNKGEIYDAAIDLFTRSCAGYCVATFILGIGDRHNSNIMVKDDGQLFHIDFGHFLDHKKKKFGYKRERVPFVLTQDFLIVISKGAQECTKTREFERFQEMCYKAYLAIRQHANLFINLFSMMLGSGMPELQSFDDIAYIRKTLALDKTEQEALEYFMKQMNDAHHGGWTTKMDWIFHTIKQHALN

[8] = target: T1, Phosphatidylinositol 4,5-bisphosphate 3-kinase catalytic subunit delta isoform; test: Inhibition of PI3K p110delta (unknown origin)

Work on C[C@H](Nc1ncnc2[nH]cnc12)c1nc2ccc(F)cc2c(=O)n1-c1ccccc1 [ACALISIB] yielded an IC50 [1] of 12.7 nM.

For COc1ccc(Cl)c(Nc2nc3ccccc3nc2NS(=O)(=O)c2cccc(NC(=O)C(C)(C)N)c2)c1 [PILARALISIB], the IC50 [2] was 36 nM and the IC50 [3] was 383 nM.

In the case of CCn1c(=O)c(-c2cc[nH]n2)cc2c(C)nc(N)nc21 [VOXTALISIB], the IC50 [4] is reported as 113 nM, the IC50 [5] is reported as 9 nM and the IC50 [6] is reported as 157 nM. For the same molecule, the IC50 [7] was 39 nM and the IC50 [8] was 43 nM.
